Laboratory results as given in article PMC6600542 (Molecules, 2019).
Several values for one entry are separate records, joined by “and”; a condition that tells them apart may be missing. Equal values may be shown once.

Experiments:
[1] = test system: human plasma deficient of FXI; assay: APTT clotting assay, FXI-deficient plasma; type: biochemical
Experimental: (§1) For the PT assay, thromboplastin-D was reconstituted according to the manufacturer’s directions and warmed to 37 °C. […] After incubation for 4 min at 37 °C, clotting was initiated by adding 100 μL of prewarmed 25 mM CaCl2 and the time to clotting was noted. […] To determine the in vitro effect on the APTT of deficient human plasmas, the APTT assay was repeated, using human plasmas deficient of factor VII (FVII), factor IX (FIX), FXI, or factor XII (FXII). […] The positive control used in APTT and PT assays was rivaroxaban, a clinically used FXa inhibitor. Under the conditions reported, rivaroxaban doubled the APTT and PT at concentrations of 0.123 ± 0.003 µM and 0.193 ± 0.043 µM, respectively.

human FXa = human FXa (Homo sapiens, UniProt P00742); assay: FXa chromogenic substrate hydrolysis assay; type: biochemical; details: pH 7.4, 37 °C
Chain of human FXa (P00742 235-488 limits assumed): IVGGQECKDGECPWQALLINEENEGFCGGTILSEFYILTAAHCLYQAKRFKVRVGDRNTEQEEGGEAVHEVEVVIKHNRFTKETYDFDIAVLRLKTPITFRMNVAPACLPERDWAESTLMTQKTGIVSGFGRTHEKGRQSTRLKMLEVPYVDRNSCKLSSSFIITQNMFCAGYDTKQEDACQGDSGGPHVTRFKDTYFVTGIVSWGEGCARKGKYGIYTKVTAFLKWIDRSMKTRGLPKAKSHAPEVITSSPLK
Chain of human FXa (P00742 41-179 partner limits assumed): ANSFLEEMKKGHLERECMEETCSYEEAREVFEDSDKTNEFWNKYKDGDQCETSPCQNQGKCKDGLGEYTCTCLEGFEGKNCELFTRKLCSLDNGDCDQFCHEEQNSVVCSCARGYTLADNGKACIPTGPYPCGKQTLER
Experimental: (§2) Direct inhibition of human FXa and α-thrombin of the common coagulation pathway and human plasmin of the fibrinolysis pathway were measured using the corresponding chromogenic substrate hydrolysis assays at 37 °C and pH 7.4, as reported earlier using the 96-microplate platform. […] After 10 min incubation, 5 µL Spectrozyme FXa (5 mM stock conc.) was rapidly added and the residual activity of FXa was measured from the initial rate of increase in absorbance at 405 nm. […] The concentration vs effect curve was constructed using logistic Equation (1) from which the potency (IC50) and efficacy (ΔY) of inhibition were also obtained.

human plasmin = human plasmin (Homo sapiens, UniProt P00747); assay: Plasmin chromogenic substrate hydrolysis assay; type: biochemical; details: Spectrozyme PL, pH 7.4, 37 °C
Chain of human plasmin (P00747 581-810 limits assumed): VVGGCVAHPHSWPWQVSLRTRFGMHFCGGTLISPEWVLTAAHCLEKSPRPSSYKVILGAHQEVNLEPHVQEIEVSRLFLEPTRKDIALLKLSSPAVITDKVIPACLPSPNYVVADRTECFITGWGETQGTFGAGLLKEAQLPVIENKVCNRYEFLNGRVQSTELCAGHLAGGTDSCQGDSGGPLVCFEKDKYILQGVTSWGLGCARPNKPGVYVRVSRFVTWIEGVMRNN
Chain of human plasmin (P00747 97-580 partner limits assumed): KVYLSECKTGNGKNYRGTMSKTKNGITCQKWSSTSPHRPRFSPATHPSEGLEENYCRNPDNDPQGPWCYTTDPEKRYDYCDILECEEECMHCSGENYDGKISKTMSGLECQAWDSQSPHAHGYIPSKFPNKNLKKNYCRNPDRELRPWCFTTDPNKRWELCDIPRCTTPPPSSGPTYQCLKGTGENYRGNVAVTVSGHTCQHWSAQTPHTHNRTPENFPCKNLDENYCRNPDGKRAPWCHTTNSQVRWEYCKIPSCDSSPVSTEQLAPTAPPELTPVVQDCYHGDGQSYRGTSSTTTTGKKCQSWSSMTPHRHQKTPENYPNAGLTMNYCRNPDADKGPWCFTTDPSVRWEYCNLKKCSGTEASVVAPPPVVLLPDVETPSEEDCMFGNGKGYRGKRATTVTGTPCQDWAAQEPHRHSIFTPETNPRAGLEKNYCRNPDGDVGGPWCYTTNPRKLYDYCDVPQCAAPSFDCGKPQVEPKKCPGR
Experimental: as §2
For thrombin and plasmin, the assays were performed using substrates appropriate for each enzyme (Spectrozyme TH for thrombin and Spectrozyme PL for plasmin) under conditions closest to the physiological condition. The KM of the substrate for its enzyme was used to identify the concentration of the substrate to be used for inhibition studies. […] After 10 min incubation, 5 µL Spectrozyme TH (1.0 mM stock conc.) was rapidly added and the residual activity of thrombin was measured from the initial rate of increase in absorbance at 405 nm. […] After 10 min incubation, 5 µL Spectrozyme PL (1.0 mM stock conc.) was rapidly added and the residual activity of plasmin was measured from the initial rate of increase in absorbance at 405 nm. […] Buffer for assays was 20–50 mM Tris-HCl buffer, pH 7.4, containing 100–150 mM NaCl, 2.5 mM CaCl2, 0.1% PEG8000, and 0.02% Tween80. All assays were performed three times.

[2] = test system: platelet-aggregation induced by adenosine diphosphate, epinephrine, thrombin, and collagen; details: cited from earlier work
[3] = test system: human plasma deficient of FXII; assay: APTT clotting assay, FXII-deficient plasma; type: biochemical
Experimental: as §1

bovine trypsin = target: T1, bovine trypsin (Bos taurus, UniProt P00760); assay: Trypsin chromogenic substrate hydrolysis assay; type: biochemical; details: pH 7.4
T1 construct: purchased Millipore-Sigma
T1 sequence (P00760 24-246): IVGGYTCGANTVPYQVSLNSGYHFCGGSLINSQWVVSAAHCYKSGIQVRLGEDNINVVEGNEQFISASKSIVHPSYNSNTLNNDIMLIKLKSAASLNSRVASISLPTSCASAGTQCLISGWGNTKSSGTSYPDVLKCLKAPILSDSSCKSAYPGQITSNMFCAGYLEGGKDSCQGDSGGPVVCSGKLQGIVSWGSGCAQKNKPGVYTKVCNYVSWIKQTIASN
Experimental: Direct inhibition of the human coagulation transglutaminase FXIIIa was also studied using a fluorescence-based transglutamination assay as reported in the literature.
After 10 min incubation, 5 µL FXIa substrate (6.9 mM stock concentration) was rapidly added and the residual FXIa activity was measured from the initial rate of increase in absorbance at 405 nm. Assays were performed in similar fashion with trypsin and chymotrypsin. Stock concentrations used were 18.9 µg/mL (trypsin) and 22.7 mM (S-2222) for bovine trypsin assay (final volume was 200 µL) and 2 µg/mL (chymotrypsin) and 16.2 mM (N-Succinyl-Ala-Ala-Pro-Phe-p-nitroanilide) for bovine chymotrypsin assay (final volume was 200 µL). The buffer used for FXIa, trypsin, chymotrypsin assays was 50 mM Tris-HCl buffer, pH 7.4, containing 150 mM NaCl, 2.5 mM CaCl2, 0.1% PEG8000, and 0.02% Tween80. Neutrophil elastase inhibition assay was performed in a 96-well plate with a final volume of 100 µl with 0.125 M 4-(2-hydroxyethyl)-1-piperazineethanesulfonic acid (HEPES) buffer, pH 7.4 containing 0.125% Triton-X 100, as reported earlier. […] After incubation, 3 µL neutrophil elastase substrate (S-1384; 25 mM stock conc.) was rapidly added and the residual enzyme activity measured from the initial rate of increase in the absorbance at 405 nm.

normal human plasma = assay: APTT clotting assay, normal human plasma; type: biochemical; details: normal human plasma (text)
Experimental: as §1

[4] = target: T2, guinea pig transglutaminase (UniProt P08587); assay: Guinea pig transglutaminase inhibition; type: biochemical; details: at concentrations as high as 500 µM
T2 sequence (P08587 1-690): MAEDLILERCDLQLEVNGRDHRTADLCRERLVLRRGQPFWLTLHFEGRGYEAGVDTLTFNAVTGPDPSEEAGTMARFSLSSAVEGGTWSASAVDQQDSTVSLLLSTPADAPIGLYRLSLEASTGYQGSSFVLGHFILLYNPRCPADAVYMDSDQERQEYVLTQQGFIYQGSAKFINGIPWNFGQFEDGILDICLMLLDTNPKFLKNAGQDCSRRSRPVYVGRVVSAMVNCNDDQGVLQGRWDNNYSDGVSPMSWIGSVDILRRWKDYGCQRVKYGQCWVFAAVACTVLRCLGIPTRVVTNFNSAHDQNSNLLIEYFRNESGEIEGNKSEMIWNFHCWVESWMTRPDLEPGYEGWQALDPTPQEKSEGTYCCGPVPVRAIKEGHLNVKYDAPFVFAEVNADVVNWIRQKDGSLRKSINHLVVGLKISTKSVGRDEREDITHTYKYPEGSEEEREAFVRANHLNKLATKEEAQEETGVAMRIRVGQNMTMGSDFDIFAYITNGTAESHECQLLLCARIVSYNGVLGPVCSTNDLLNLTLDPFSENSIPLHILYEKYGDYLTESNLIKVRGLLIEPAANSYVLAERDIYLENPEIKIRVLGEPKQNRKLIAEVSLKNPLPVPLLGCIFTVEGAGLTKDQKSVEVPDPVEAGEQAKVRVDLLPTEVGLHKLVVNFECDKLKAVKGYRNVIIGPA

## N=C(N)c1ccc(OCCCCCOc2ccc(C(=N)N)cc2)cc1 [pentamidine isethionate, 4,4′-(pentane-1,5-diylbis(oxy))-dibenzimidamide]
[1]
  APTTEC2×, concentration to double clotting time: 29.48 ± 3.88 µm
Human FXa
  HS: 0.97 ± 0.07
  IC50: ~10 µM and 10.4 µM
  ∆Y (efficacy): 101.6 ± 2.9%
Human FXa; listed as pentamidine
  ∆Y (efficacy): ~ 100%
Human plasmin
  HS: 1.1 ± 0.1
  IC50: ~8.4 µM and 8.4 µM
  ∆Y (efficacy): 98.0 ± 3.3%
Human plasmin; listed as pentamidine
  ∆Y (efficacy): ~ 100%
[2]
  concentration that completely inhibited platelet-aggregation: greater than 8.4 µM
[3]
  APTTEC2×, concentration to double clotting time: 27.05 ± 6.05 µm
Bovine trypsin
  HS: 1.0 ± 0.2
  IC50: 4.9 ± 0.8 µM
  ∆Y (efficacy): 116.8 ± 7.4%
Normal human plasma
  concentration to double the APTT: 27.88 ± 2.99 µM
Normal human plasma; listed as pentamidine
  concentration to double the APTT: lower than 50 µM
[4]
  inhibition of guinea pig transglutaminase: did not inhibit
